Measured values reported in PubChem BioAssay (NCI).
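Five compound concentrations were applied to cells in 96-well plates for 48 hours; endpoints were derived by simple linear interpolation of the resulting dose-response curve. The concentration for full growth arrest is given as TGI.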

Key:
Experiment in all cases: NCI anticancer screen, dose series, 48 h
CAKI-1 renal = system: CAKI-1 renal
SK-MEL-2 melanoma = system: SK-MEL-2 melanoma
LOX IMVI melanoma = system: LOX IMVI melanoma
BT-549 breast = system: BT-549 breast
HCT-15 colon = system: HCT-15 colon
KM12 colon = system: KM12 colon
UACC-62 melanoma = system: UACC-62 melanoma
HCC-2998 colon = system: HCC-2998 colon
MDA-MB-231 breast = system: MDA-MB-231 breast
IGROV1 ovarian = system: IGROV1 ovarian
OVCAR-5 ovarian = system: OVCAR-5 ovarian
MCF7 breast = system: MCF7 breast
M14 melanoma = system: M14 melanoma
SK-MEL-5 melanoma = system: SK-MEL-5 melanoma
K-562 leukemia = system: K-562 leukemia
MOLT-4 leukemia = system: MOLT-4 leukemia
SNB-19 CNS = system: SNB-19 CNS
RXF 393 renal = system: RXF 393 renal
UACC-257 melanoma = system: UACC-257 melanoma
MALME-3M melanoma = system: MALME-3M melanoma
SN12C renal = system: SN12C renal
NCI-H460 lung = system: NCI-H460 lung
NCI-H226 lung = system: NCI-H226 lung
HCT-116 colon = system: HCT-116 colon
786-0 renal = system: 786-0 renal
SF-295 CNS = system: SF-295 CNS
SF-268 CNS = system: SF-268 CNS
MDA-MB-435 = system: MDA-MB-435
NCI-H23 lung = system: NCI-H23 lung
EKVX NSCLC = system: EKVX NSCLC
MDA-N = system: MDA-N
HOP-62 NSCLC = system: HOP-62 NSCLC
HT29 colon = system: HT29 colon
SK-OV-3 ovarian = system: SK-OV-3 ovarian
OVCAR-4 ovarian = system: OVCAR-4 ovarian
NCI-H522 lung = system: NCI-H522 lung
PC-3 prostate = system: PC-3 prostate
HL-60(TB) leukemia = system: HL-60(TB) leukemia
RPMI-8226 leukemia = system: RPMI-8226 leukemia
U251 CNS = system: U251 CNS
SF-539 CNS = system: SF-539 CNS
T-47D breast = system: T-47D breast
A549 NSCLC = system: A549 NSCLC
DU-145 prostate = system: DU-145 prostate
HS 578T breast = system: HS 578T breast
CCRF-CEM leukemia = system: CCRF-CEM leukemia
NCI/ADR-RES ovarian = system: NCI/ADR-RES ovarian
SK-MEL-28 melanoma = system: SK-MEL-28 melanoma
OVCAR-8 ovarian = system: OVCAR-8 ovarian
TK-10 renal = system: TK-10 renal
SR leukemia = system: SR leukemia
SW-620 colon = system: SW-620 colon
A498 renal = system: A498 renal
ACHN renal = system: ACHN renal
COLO 205 colon = system: COLO 205 colon
HOP-92 NSCLC = system: HOP-92 NSCLC
SNB-75 CNS = system: SNB-75 CNS
OVCAR-3 ovarian = system: OVCAR-3 ovarian
UO-31 renal = system: UO-31 renal

CN(C1=NCCO1)c1cccc2c1CCCC2
TGI (CAKI-1 renal): > 10 µM
TGI (SK-MEL-2 melanoma): > 10 µM
TGI (LOX IMVI melanoma): 5.27 µM
TGI (BT-549 breast): > 10 µM
TGI (HCT-15 colon): > 10 µM
TGI (KM12 colon): > 10 µM
TGI (UACC-62 melanoma): > 10 µM
TGI (HCC-2998 colon): > 10 µM
TGI (MDA-MB-231 breast): 5.28 µM
TGI (IGROV1 ovarian): 8.35 µM
TGI (OVCAR-5 ovarian): > 10 µM
TGI (MCF7 breast): > 10 µM
TGI (M14 melanoma): 6.09 µM
TGI (SK-MEL-5 melanoma): 4.84 µM
TGI (K-562 leukemia): > 10 µM
TGI (MOLT-4 leukemia): > 10 µM
TGI (SNB-19 CNS): > 10 µM
TGI (RXF 393 renal): > 10 µM
TGI (UACC-257 melanoma): > 10 µM
TGI (MALME-3M melanoma): 9.3 µM
TGI (SN12C renal): > 10 µM
TGI (NCI-H460 lung): > 10 µM
TGI (NCI-H226 lung): 6.14 µM
TGI (HCT-116 colon): 8.95 µM
TGI (786-0 renal): > 10 µM
TGI (SF-295 CNS): > 10 µM
TGI (SF-268 CNS): > 10 µM
TGI (MDA-MB-435): > 10 µM
TGI (NCI-H23 lung): 8.81 µM
TGI (EKVX NSCLC): > 10 µM
TGI (MDA-N): > 10 µM
TGI (HOP-62 NSCLC): > 10 µM
TGI (HT29 colon): 5.2 µM
TGI (SK-OV-3 ovarian): > 10 µM
TGI (OVCAR-4 ovarian): 7.78 µM
TGI (NCI-H522 lung): > 10 µM
TGI (PC-3 prostate): 8.53 µM
TGI (HL-60(TB) leukemia): > 10 µM
TGI (RPMI-8226 leukemia): > 10 µM
TGI (U251 CNS): > 10 µM
TGI (SF-539 CNS): > 10 µM
TGI (T-47D breast): > 10 µM
TGI (A549 NSCLC): > 10 µM
TGI (DU-145 prostate): > 10 µM
TGI (HS 578T breast): > 10 µM
TGI (CCRF-CEM leukemia): 8.06 µM
TGI (NCI/ADR-RES ovarian): > 10 µM
TGI (SK-MEL-28 melanoma): > 10 µM
TGI (OVCAR-8 ovarian): > 10 µM
TGI (TK-10 renal): > 10 µM
TGI (SR leukemia): > 10 µM
TGI (SW-620 colon): > 10 µM
TGI (A498 renal): 9.35 µM
TGI (ACHN renal): 8.09 µM
TGI (COLO 205 colon): 3.4 µM

CC(C)NC(=O)OCCN=C1c2ccccc2CCc2ccccc21
TGI (CAKI-1 renal): > 100 µM
TGI (SK-MEL-2 melanoma): 34.6 µM
TGI (LOX IMVI melanoma): 72.7 µM
TGI (BT-549 breast): 28.5 µM
TGI (HCT-15 colon): 77.8 µM
TGI (KM12 colon): > 100 µM
TGI (HOP-92 NSCLC): 55 µM
TGI (UACC-62 melanoma): 40.8 µM
TGI (HCC-2998 colon): 39 µM
TGI (MDA-MB-231 breast): 66.7 µM
TGI (IGROV1 ovarian): > 100 µM
TGI (OVCAR-5 ovarian): 82.9 µM
TGI (MCF7 breast): 57.5 µM
TGI (M14 melanoma): 39.7 µM
TGI (SK-MEL-5 melanoma): 27.4 µM
TGI (SNB-75 CNS): > 100 µM
TGI (K-562 leukemia): 59 µM
TGI (MOLT-4 leukemia): 39.7 µM
TGI (SNB-19 CNS): 66.8 µM
TGI (RXF 393 renal): > 100 µM
TGI (UACC-257 melanoma): 46 µM
TGI (MALME-3M melanoma): 36.3 µM
TGI (SN12C renal): 46.2 µM
TGI (NCI-H460 lung): 76.9 µM
TGI (NCI-H226 lung): 60.5 µM
TGI (HCT-116 colon): 46.6 µM
TGI (786-0 renal): > 100 µM
TGI (SF-295 CNS): 28.7 µM
TGI (SF-268 CNS): 80.7 µM
TGI (MDA-MB-435): 55.1 µM
TGI (NCI-H23 lung): > 100 µM
TGI (EKVX NSCLC): 81.3 µM
TGI (MDA-N): 39.8 µM
TGI (HOP-62 NSCLC): 70.1 µM
TGI (HT29 colon): 47.6 µM
TGI (SK-OV-3 ovarian): 85.4 µM
TGI (OVCAR-3 ovarian): 58.5 µM
TGI (OVCAR-4 ovarian): 43.1 µM
TGI (PC-3 prostate): 62.4 µM
TGI (HL-60(TB) leukemia): 45.7 µM
TGI (RPMI-8226 leukemia): 43.2 µM
TGI (U251 CNS): 50.6 µM
TGI (SF-539 CNS): 41.5 µM
TGI (T-47D breast): 66.1 µM
TGI (A549 NSCLC): > 100 µM
TGI (DU-145 prostate): 88.9 µM
TGI (UO-31 renal): 58.7 µM
TGI (HS 578T breast): 78.3 µM
TGI (CCRF-CEM leukemia): 46.5 µM
TGI (NCI/ADR-RES ovarian): 99.5 µM
TGI (SK-MEL-28 melanoma): 40.3 µM
TGI (OVCAR-8 ovarian): > 100 µM
TGI (TK-10 renal): 92.7 µM
TGI (SR leukemia): 53 µM
TGI (SW-620 colon): > 100 µM
TGI (ACHN renal): 68.4 µM
TGI (COLO 205 colon): 35.7 µM
